Results taken from patent publication US20250163076A1, “SYNTHESIS OF BRUTON'S TYROSINE KINASE INHIBITORS” (JANSSEN PHARMACEUTICA NV, priority 2022, published 2025).
In brackets after ≈: the same amount, converted by molar mass. Read-outs that look alike come from different tables or passages of the source.

Columns and labels:
BTK = BTK (Homo sapiens, UniProt Q06187); assay: BTK covalent inhibition kinetics (KI, kinact, kinact/KI); type: biochemical; settings: for Ki / kinact: average of 2 independent determinations (± SD)
BTK, sequence (Q06187 whole entry): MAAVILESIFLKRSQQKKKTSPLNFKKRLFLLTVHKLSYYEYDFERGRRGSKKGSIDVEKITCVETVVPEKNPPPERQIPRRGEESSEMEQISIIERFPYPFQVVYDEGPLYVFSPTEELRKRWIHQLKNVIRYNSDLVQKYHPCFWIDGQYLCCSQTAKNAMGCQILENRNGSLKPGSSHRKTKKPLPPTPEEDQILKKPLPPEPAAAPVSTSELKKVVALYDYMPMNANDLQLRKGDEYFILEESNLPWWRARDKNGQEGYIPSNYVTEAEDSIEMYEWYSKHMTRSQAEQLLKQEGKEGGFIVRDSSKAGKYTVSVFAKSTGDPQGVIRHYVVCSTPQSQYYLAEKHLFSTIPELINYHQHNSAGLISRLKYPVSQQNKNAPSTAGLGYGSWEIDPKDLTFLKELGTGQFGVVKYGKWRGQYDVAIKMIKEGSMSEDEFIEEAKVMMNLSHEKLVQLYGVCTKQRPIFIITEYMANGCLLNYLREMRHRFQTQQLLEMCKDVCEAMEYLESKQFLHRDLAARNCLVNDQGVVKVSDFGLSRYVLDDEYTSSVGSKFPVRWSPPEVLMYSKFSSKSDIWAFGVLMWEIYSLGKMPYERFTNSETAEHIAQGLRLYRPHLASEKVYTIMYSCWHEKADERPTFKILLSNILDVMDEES
Experimental: The development of the structure-activity relationship was conducted by characterizing the non-covalent affinity of each inhibitor for BTK (KI) and the first order rate constant for irreversible covalent bond formation (kinact). The second order rate constant kinact/KI ratio is used to assess the covalent inhibitor potency because it is independent of incubation time and substrate concentrations (Copeland, R. A. Evaluation of Enzyme Inhibitors in Drug Discovery: a Guide for Medicinal Chemists and Pharmacologists; 2nd ed.; Wiley: Hoboken, N.J., 2013).

[1] = Aqueous solubility at pH 2 and pH 7; type: physicochemical; settings: aqueous medium, Table 4
[2] = Human liver microsomes T1/2; type: in vitro ADME; settings: human, liver microsomes; Table 4
[3] = aqueous buffer, pH 7, read-out: Solubility pH 7
[4] = simulated gastric fluid, pH 2, read-out: Solubility pH 2

Row | Compound | Ki (BTK; Table 4) [µM] | kinact (BTK; Table 4) [s⁻¹] | kinact/KI (BTK; Table 4, read-out: kinact/KI) [M⁻¹ s⁻¹] | Solubility [1, 3] [µM] | Solubility [1, 4] [µM] | half-life [2] [min] | kinact/KI (BTK; text b354) [M⁻¹ s⁻¹]
1 | C=CC(=O)N1CCCC(NC(=O)c2sc3nccc4c3c2NC(=O)N4c2ccc(Oc3ccccc3)cn2)C1 (stereo not shown) [C] | 0.456 ± 0.007 | 0.000303 | 664 ± 44 | 9 (≈ 4.87 µg/mL) | 10 (≈ 5.41 µg/mL) | < 4 | –
2 | C=CC(=O)N1CCCC(NC(=O)c2sc3nccc4c3c2NC(=O)N4c2ccc(Oc3ccccc3)cc2)C1 (stereo not shown) [Compound B] | 0.032 ± 0.02 | 0.00039 ± 0.00011 | 13800 ± 5200 | < 4 | < 4 | < 4 | 13800
3 | C=CC(=O)N1CCCC(NC(=O)c2sc3nccc4c3c2NC(=O)N4c2cnc(Oc3ccccc3)cc2C)C1 (stereo not shown) [Compound F] | 0.0276 | 0.000352 | 13000 ± 1700 | 7 (≈ 3.88 µg/mL) | 15 (≈ 8.32 µg/mL) | 5 | –
